This is an account of results in US20260166128A1, “HUMAN AMYLIN ANALOG, AND DERIVATIVE THEREOF AND USE THEREOF” (priority 2022, published 2026).

The target in one data set is T1, human amylin receptor (Homo sapiens, UniProt O60896+P30988).
T1 construct: host or cells: CHO-K1/Ga15/AMY3 cells, further stably transfected with a CRE-luciferase plasmid
T1 sequence (P30988 25-474): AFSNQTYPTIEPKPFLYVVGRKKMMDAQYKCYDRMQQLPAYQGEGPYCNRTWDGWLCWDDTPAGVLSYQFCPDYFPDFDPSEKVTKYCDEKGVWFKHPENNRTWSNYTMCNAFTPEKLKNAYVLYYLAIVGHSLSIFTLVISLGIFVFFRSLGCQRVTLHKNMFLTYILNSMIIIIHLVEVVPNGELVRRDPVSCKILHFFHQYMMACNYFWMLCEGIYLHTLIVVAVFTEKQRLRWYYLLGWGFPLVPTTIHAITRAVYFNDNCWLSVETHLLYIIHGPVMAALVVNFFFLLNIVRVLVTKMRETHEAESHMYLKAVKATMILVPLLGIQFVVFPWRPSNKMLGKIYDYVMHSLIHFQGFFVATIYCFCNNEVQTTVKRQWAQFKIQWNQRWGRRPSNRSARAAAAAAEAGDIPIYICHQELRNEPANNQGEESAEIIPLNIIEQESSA
T1 sequence (O60896 24-148 partner): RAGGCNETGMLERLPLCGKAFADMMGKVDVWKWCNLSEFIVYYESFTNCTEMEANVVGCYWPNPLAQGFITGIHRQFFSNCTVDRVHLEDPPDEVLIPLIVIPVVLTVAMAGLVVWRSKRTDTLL
The data set is described as follows: Luciferase assay of amylin derivatives in amylin receptor/CRE-luc CHO cell line. Type of data set: cell-based. The note with it: CHO-K1/Ga15/AMY3 CRE-luc cells, 24 hours incubation, F12 medium containing 10% FBS; read-out: EC50.

Data set [1] in a line: Freeze-thaw stability of derivatives (freeze-thaw yield by liquid chromatography). The note with it: for Dissolution property: appearance after dissolution at 0.2 mg/ml in 20 mM phosphate buffer solution (PB) (pH 7.0); for Freeze storage property: appearance after overnight storage at −20° C. and thawing to room temperature, 0.2 mg/ml in 20 mM PB (pH 7.0); for Freeze storage yield: concentration of polypeptide after freezing and thawing / concentration before, by liquid chromatography, −20° C. overnight. Type of data set: physicochemical. Summed up: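 Freeze-thaw yield is the ratio of peptide concentration after versus before one overnight −20° C freeze and room-temperature thaw, both quantified by RP-HPLC of supernatant after centrifugation. Samples were 0.2 mg/ml freeze-dried derivative in 20 mM PB, pH 7.0.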

The term EC50 denotes the midpoint of the concentration-response curve.

Numbered stars: 1 amine (or outer) side, 2 acyl side, 3 side chain; on linkers, the order of the positions; unused ones are H or OH. Bridge positions count the residues as written; N and C are the ends. Square brackets hold non-standard residues; d marks the D form. Side chains are listed from the residue outwards. Peptide text beside a SMILES is read from it. * marks the point of attachment. C20 diacid = O=C(O)CCCCCCCCCCCCCCCCCCC(=O)*; C18 diacid = O=C(O)CCCCCCCCCCCCCCCCC(=O)*; γGlu = O=C(O)[C@H](CCC(=O)[*:2])N[*:1]; Hyp = O=C(O)[C@@H]1C[C@@H](O)CN1; AEEA = NCCOCCOCC(=O)O

Procedure for human amylin receptor: The experiment was intended to detect the activity or efficacy of the amylin derivatives on a human amylin receptor in vitro by luciferase assay.
50 μL of growth medium (F12 medium containing 10% FBS) was added into each well of a white 96-well plate, and the stably transfected amylin/CRE-lue CHO cells were inoculated into the white 96-well plate at a density of about 20,000 cells/well for activity determination.

In the case of `CC[C@H](C)[C@H](NC(=O)[C@@H]1CCCN1C(=O)CNC(=O)[C@H](CC(C)C)NC(=O)[C@H](CCCCNC(=O)CC[C@H](NC(=O)CCCCCCCCCCCCCCCCCCC(=O)O)C(=O)O)NC(=O)[C@H](CC(N)=O)NC(=O)[C@H](CO)NC(=O)[C@H](CO)NC(=O)[C@H](Cc1c[nH]cn1)NC(=O)[C@H](CCCNC(=N)N)NC(=O)[C@H](CC(C)C)NC(=O)[C@H](Cc1ccccc1)NC(=O)[C@H](CCC(=O)O)NC(=O)[C@H](C)NC(=O)[C@H](CC(C)C)NC(=O)[C@H](CCCNC(=N)N)NC(=O)[C@H](CCC(N)=O)NC(=O)[C@@H](NC(=O)[C@H](C)NC(=O)[C@@H]1CSSC[C@H](NC(=O)[C@@H](N)CCCNC(=N)N)C(=O)N[C@@H](CC(N)=O)C(=O)N[C@@H]([C@@H](C)O)C(=O)N[C@@H](C)C(=O)N[C@@H]([C@@H](C)O)C(=O)N1)[C@@H](C)O)C(=O)N[C@@H](CC(C)C)C(=O)N1CCC[C@H]1C(=O)N1CCC[C@H]1C(=O)N[C@H](C(=O)N[C@@H](CC(N)=O)C(=O)N[C@H](C(=O)NCC(=O)N[C@@H](CO)C(=O)N[C@@H](CC(N)=O)C(=O)N[C@H](C(=O)N1CCC[C@H]1C(N)=O)[C@@H](C)O)C(C)C)[C@@H](C)O` [PD007] (H-RCNTATCATQRLAEFLRHSSNK([γGlu-C20 diacid])LGPILPPTNVGSNTP-NH2; disulfide 2-7 (inferred); N-terminus assumed), the EC50 on human amylin receptor is 0.205 nM. For the same compound, in data set [1], the Dissolution property result is “Clear” and the Freeze storage property entry is recorded as “Clear”.
On to `CC[C@H](C)[C@H](NC(=O)[C@@H]1CCCN1C(=O)CNC(=O)[C@H](CCCCNC(=O)COCCOCCNC(=O)COCCOCCNC(=O)CC[C@H](NC(=O)CCCCCCCCCCCCCCCCCCC(=O)O)C(=O)O)NC(=O)[C@H](CC(N)=O)NC(=O)[C@H](CC(N)=O)NC(=O)[C@H](CO)NC(=O)[C@H](CO)NC(=O)[C@H](Cc1c[nH]cn1)NC(=O)[C@H](CCCNC(=N)N)NC(=O)[C@H](CC(C)C)NC(=O)[C@H](Cc1ccccc1)NC(=O)[C@H](CCC(=O)O)NC(=O)[C@H](C)NC(=O)[C@H](CC(C)C)NC(=O)[C@H](CCCNC(=N)N)NC(=O)[C@H](CCC(N)=O)NC(=O)[C@@H](NC(=O)[C@H](C)NC(=O)[C@@H]1CSSC[C@H](NC(=O)[C@@H](N)CCCNC(=N)N)C(=O)N[C@@H](CC(N)=O)C(=O)N[C@@H]([C@@H](C)O)C(=O)N[C@@H](C)C(=O)N[C@@H]([C@@H](C)O)C(=O)N1)[C@@H](C)O)C(=O)N[C@@H](CC(C)C)C(=O)N1CCC[C@H]1C(=O)N1CCC[C@H]1C(=O)N[C@H](C(=O)N[C@@H](CC(N)=O)C(=O)N[C@H](C(=O)NCC(=O)N[C@@H](CO)C(=O)N[C@@H](CC(N)=O)C(=O)N[C@H](C(=O)N1CCC[C@H]1C(N)=O)[C@@H](C)O)C(C)C)[C@@H](C)O` [PD003] (H-RCNTATCATQRLAEFLRHSSNNK([AEEA-AEEA-γGlu-C20 diacid])GPILPPTNVGSNTP-NH2; disulfide 2-7 (inferred); N-terminus assumed), for which, at human amylin receptor, the EC50 is 0.14 nM. Besides, in data set [1], the Dissolution property result is listed as “Clear” and the Freeze storage property entry is reported as “Clear”.
With `CC[C@H](C)[C@H](NC(=O)[C@@H]1CCCN1C(=O)CNC(=O)[C@H](CC(C)C)NC(=O)[C@H](CC(N)=O)NC(=O)[C@H](CCCCNC(=O)COCCOCCNC(=O)COCCOCCNC(=O)CC[C@H](NC(=O)CCCCCCCCCCCCCCCCCCC(=O)O)C(=O)O)NC(=O)[C@H](CO)NC(=O)[C@H](CO)NC(=O)[C@H](Cc1c[nH]cn1)NC(=O)[C@H](CCCNC(=N)N)NC(=O)[C@H](CC(C)C)NC(=O)[C@H](Cc1ccccc1)NC(=O)[C@H](CCC(=O)O)NC(=O)[C@H](C)NC(=O)[C@H](CC(C)C)NC(=O)[C@H](CCCNC(=N)N)NC(=O)[C@H](CCC(N)=O)NC(=O)[C@@H](NC(=O)[C@H](C)NC(=O)[C@@H]1CSSC[C@H](NC(=O)[C@@H](N)CCCNC(=N)N)C(=O)N[C@@H](CC(N)=O)C(=O)N[C@@H]([C@@H](C)O)C(=O)N[C@@H](C)C(=O)N[C@@H]([C@@H](C)O)C(=O)N1)[C@@H](C)O)C(=O)N[C@@H](CC(C)C)C(=O)N1CCC[C@H]1C(=O)N1CCC[C@H]1C(=O)N[C@H](C(=O)N[C@@H](CC(N)=O)C(=O)N[C@H](C(=O)NCC(=O)N[C@@H](CO)C(=O)N[C@@H](CC(N)=O)C(=O)N[C@H](C(=O)N1CCC[C@H]1C(N)=O)[C@@H](C)O)C(C)C)[C@@H](C)O` [PD001] (H-RCNTATCATQRLAEFLRHSSK([AEEA-AEEA-γGlu-C20 diacid])NLGPILPPTNVGSNTP-NH2; disulfide 2-7 (inferred); N-terminus assumed), on human amylin receptor, the EC50 was 0.042 nM. In data set [1], the Dissolution property entry is “Clear” and the Freeze storage property result is reported as “Clear”.
Take `CC[C@H](C)[C@H](NC(=O)[C@@H]1CCCN1C(=O)CNC(=O)[C@H](CC(C)C)NC(=O)[C@H](CC(N)=O)NC(=O)[C@H](CC(N)=O)NC(=O)[C@H](CO)NC(=O)[C@H](CO)NC(=O)[C@H](Cc1c[nH]cn1)NC(=O)[C@H](CCCNC(=N)N)NC(=O)[C@H](CC(C)C)NC(=O)[C@H](Cc1ccccc1)NC(=O)[C@H](CC(=O)O)NC(=O)[C@H](C)NC(=O)[C@H](CC(C)C)NC(=O)[C@H](CCCNC(=N)N)NC(=O)[C@H](CCC(N)=O)NC(=O)[C@@H](NC(=O)[C@H](C)NC(=O)[C@@H]1CSSC[C@H](NC(=O)[C@H](CCCCN)NC(=O)COCCOCCNC(=O)COCCOCCNC(=O)CC[C@H](NC(=O)CCCCCCCCCCCCCCCCC(=O)O)C(=O)O)C(=O)N[C@@H](CC(N)=O)C(=O)N[C@@H]([C@@H](C)O)C(=O)N[C@@H](C)C(=O)N[C@@H]([C@@H](C)O)C(=O)N1)[C@@H](C)O)C(=O)N[C@@H](CC(C)C)C(=O)N1CCC[C@H]1C(=O)N1CCC[C@H]1C(=O)N[C@H](C(=O)N[C@@H](CC(N)=O)C(=O)N[C@H](C(=O)NCC(=O)N[C@@H](CO)C(=O)N[C@@H](CC(N)=O)C(=O)N[C@H](C(=O)N1C[C@H](O)C[C@H]1C(N)=O)[C@@H](C)O)C(C)C)[C@@H](C)O` [PD126] ({C18 diacid-γGlu-AEEA-AEEA}-KCNTATCATQRLADFLRHSSNNLGPILPPTNVGSNT[Hyp]-NH2; disulfide 2-7 (inferred)): at human amylin receptor, the 50% effective concentration (EC50) stood at 0.028 nM. In data set [1], the Dissolution property result is given as “Clear”, the Freeze storage property entry is “Clear” and the Freeze storage yield amounted to 99.24%.
Regarding `CC[C@H](C)[C@H](NC(=O)[C@@H]1CCCN1C(=O)CNC(=O)[C@H](Cc1ccccc1)NC(=O)[C@H](CC(N)=O)NC(=O)[C@H](CC(N)=O)NC(=O)[C@H](CO)NC(=O)[C@H](CO)NC(=O)[C@H](Cc1c[nH]cn1)NC(=O)[C@H](CCCNC(=N)N)NC(=O)[C@H](CC(C)C)NC(=O)[C@H](Cc1ccccc1)NC(=O)[C@H](CC(=O)O)NC(=O)[C@H](C)NC(=O)[C@H](CC(C)C)NC(=O)[C@H](CCCNC(=N)N)NC(=O)[C@H](CCC(N)=O)NC(=O)[C@@H](NC(=O)[C@H](C)NC(=O)[C@@H]1CSSC[C@H](NC(=O)[C@H](CCCCN)NC(=O)CC[C@H](NC(=O)CCCCCCCCCCCCCCCCCCC(=O)O)C(=O)O)C(=O)N[C@@H](CC(N)=O)C(=O)N[C@@H]([C@@H](C)O)C(=O)N[C@@H](C)C(=O)N[C@@H]([C@@H](C)O)C(=O)N1)[C@@H](C)O)C(=O)N[C@@H](CC(C)C)C(=O)N1CCC[C@H]1C(=O)N1CCC[C@H]1C(=O)N[C@H](C(=O)N[C@@H](CC(N)=O)C(=O)N[C@H](C(=O)NCC(=O)N[C@@H](CO)C(=O)N[C@@H](CC(N)=O)C(=O)N[C@H](C(=O)N1C[C@H](O)C[C@H]1C(N)=O)[C@@H](C)O)C(C)C)[C@@H](C)O` [PD067] ({C20 diacid-γGlu}-KCNTATCATQRLADFLRHSSNNFGPILPPTNVGSNT[Hyp]-NH2; disulfide 2-7 (inferred)), at human amylin receptor, the EC50 worked out at 0.034 nM. Besides, in data set [1], the Dissolution property entry is on record as “Clear”, the Freeze storage property entry is “Clear” and the Freeze storage yield is 98.84%.
